Test results from patent US6956053B2, “Pyrazole derivatives and their use as gastrin and cholecystokin receptor ligands” (The James Black Foundation Limited, priority 2000, dated 2005).

Target: T1, gastrin (CCK2) receptors (Rattus norvegicus, UniProt P30553)
T1 construct: The stomach was excised and flushed with ca. 1 ml of unbuffered physiological saline solution; from tissue; host or cells: isolated, lumen-perfused stomach of immature rats (33-50 g, ca. 21 days old)
T1 sequence (P30553 1-452): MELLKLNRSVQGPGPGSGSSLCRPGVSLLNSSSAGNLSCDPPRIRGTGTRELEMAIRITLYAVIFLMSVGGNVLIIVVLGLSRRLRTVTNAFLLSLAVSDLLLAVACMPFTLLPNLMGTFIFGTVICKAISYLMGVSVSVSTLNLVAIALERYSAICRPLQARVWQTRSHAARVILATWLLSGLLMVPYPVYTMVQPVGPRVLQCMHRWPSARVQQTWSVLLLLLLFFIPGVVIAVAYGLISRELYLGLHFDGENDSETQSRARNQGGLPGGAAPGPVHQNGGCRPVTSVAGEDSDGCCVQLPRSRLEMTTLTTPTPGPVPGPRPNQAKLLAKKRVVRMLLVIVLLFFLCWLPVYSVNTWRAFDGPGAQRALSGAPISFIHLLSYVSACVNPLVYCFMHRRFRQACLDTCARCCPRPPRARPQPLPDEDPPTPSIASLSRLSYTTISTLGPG
Assay: immature rat stomach assay, gastrin (CCK2) antagonist activity against pentagastrin-stimulated acid secretion
Type: cell-based
Conditions: isolated immature rat stomach, pentagastrin dose-response curves, 60 min after drug addition; for Kb: read-out: Rat Stomach pKB (converted)
Description: The compounds of the examples were tested for gastrin (CCK2) antagonist activity in an immature rat stomach assay. The procedure was as follows:
The oesophagus of immature rats (33-50 g, ca. 21 days old) was ligated at the level of the cardiac sphincter and the duodenal sphincter was cannulated. The stomach was excised and flushed with ca. 1 ml of unbuffered physiological saline solution. The fundus was punctured and cannulated. A further 4-5 ml of unbuffered solution was flushed through the stomach to ensure the preparation was not leaking. The stomach was lowered into a jacketed organ bath containing 40 ml of buffered solution containing 3×10^−8 M 5-methylfurmethide, maintained at 37° and gassed vigorously with 95% O2/5% CO2. The stomach was continuously perfused at a rate of 1 ml min^−1 with unbuffered solution gassed with 100% O2 with the perfusate passing over an internally referenced pH-electrode fixed 12 cm above the stomach.
After 120 min of stabilisation the drugs were added directly to the serosal solution in the organ bath and after a further 60 min cumulative pentagastrin dose-response curves were started. Changes in acid secretion were monitored and the curves analysed according to Black et al., Br. J. Pharmacol., 1985, 86, 581.

Compound | Kb [nM] | Rat Stomach pKB
Cn1c(COC23CC4CC(CC(C4)C2)C3)c(C(=O)Nc2cccc(C(=O)O)c2)c(=O)n1C1CCCCC1 [Example 6, 3-{[5-(Adamantan-1-yloxymethyl)-2-cyclohexyl-1-methyl-3-oxo-2,3-dihydro-1H-pyrazole-4-carbonyl]-amino}-benzoic acid] | 269 | –
3-{[3-(Adamantan-1-yloxymethyl)-3-phenyl-1-o-tolyl-1H-pyrazole-4-carbonyl]-amino}-benzoic acid [Example 2] | – | 5.66 ± 0.24
COc1c(C(=O)Nc2cccc(C(=O)O)c2)c(COC23CC4CC(CC(C4)C2)C3)nn1C1CCCCC1 [Example 5, 3-{[3-(Adamantan-1-yloxymethyl)-1-cyclohexyl-5-methoxy-1H-pyrazole-4-carbonyl]-amino}-benzoic acid] | 170 | –
O=C(O)c1cccc(NC(=O)c2c(COC34CC5CC(CC(C5)C3)C4)nn(C3CCCCC3)c2O)c1 [Example 4, 3-{[3-(Adamantan-1-yloxymethyl)-1-cyclohexyl-5-hydroxyl-1H-pyrazole-4-carbonyl]-amino}-benzoic acid] | 30.9 | –
Cc1ccccc1-n1nc(COC23CC4CC(CC(C4)C2)C3)c(C(=O)Nc2cccc(C(=O)O)c2)c1O [Example 3, 3-{[3-(Adamantan-1-yloxymethyl)-5-hydroxy-1-o-tolyl-1H-pyrazole-4-carbonyl]-amino}-benzoic acid] | 19.1 | –
